According to PubChem BioAssay (NCI):
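Dose response: 5 concentrations. Exposure: 48 h. Format: 96-well plates. Endpoint: linear interpolation; highest concentration if not reached. Here, GI50 denotes the concentration required for 50% inhibition of growth. The concentration for full growth arrest is given as TGI.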

How the values were obtained:
Assay in all cases: NCI anticancer screen, dose series, 48 h
HOP-92 NSCLC = system: HOP-92 NSCLC
SK-OV-3 ovarian = system: SK-OV-3 ovarian
MDA-MB-231 breast = system: MDA-MB-231 breast
SK-MEL-2 melanoma = system: SK-MEL-2 melanoma
PC-3 prostate = system: PC-3 prostate
NCI/ADR-RES ovarian = system: NCI/ADR-RES ovarian
HCT-15 colon = system: HCT-15 colon
BT-549 breast = system: BT-549 breast
U251 CNS = system: U251 CNS
SK-MEL-28 melanoma = system: SK-MEL-28 melanoma
HCT-116 colon = system: HCT-116 colon
EKVX NSCLC = system: EKVX NSCLC
DU-145 prostate = system: DU-145 prostate
ACHN renal = system: ACHN renal
KM12 colon = system: KM12 colon
OVCAR-3 ovarian = system: OVCAR-3 ovarian
IGROV1 ovarian = system: IGROV1 ovarian
SR leukemia = system: SR leukemia
HCC-2998 colon = system: HCC-2998 colon
UACC-62 melanoma = system: UACC-62 melanoma
CAKI-1 renal = system: CAKI-1 renal
UO-31 renal = system: UO-31 renal
OVCAR-5 ovarian = system: OVCAR-5 ovarian
K-562 leukemia = system: K-562 leukemia
SN12C renal = system: SN12C renal
OVCAR-4 ovarian = system: OVCAR-4 ovarian
COLO 205 colon = system: COLO 205 colon
786-0 renal = system: 786-0 renal
UACC-257 melanoma = system: UACC-257 melanoma
RXF 393 renal = system: RXF 393 renal
A549 NSCLC = system: A549 NSCLC
SNB-75 CNS = system: SNB-75 CNS
NCI-H460 lung = system: NCI-H460 lung
TK-10 renal = system: TK-10 renal
NCI-H226 lung = system: NCI-H226 lung
MALME-3M melanoma = system: MALME-3M melanoma
MOLT-4 leukemia = system: MOLT-4 leukemia
SK-MEL-5 melanoma = system: SK-MEL-5 melanoma
M14 melanoma = system: M14 melanoma
HOP-62 NSCLC = system: HOP-62 NSCLC
SW-620 colon = system: SW-620 colon
HL-60(TB) leukemia = system: HL-60(TB) leukemia
SF-295 CNS = system: SF-295 CNS
RPMI-8226 leukemia = system: RPMI-8226 leukemia
T-47D breast = system: T-47D breast
NCI-H522 lung = system: NCI-H522 lung
MCF7 breast = system: MCF7 breast
SF-268 CNS = system: SF-268 CNS
OVCAR-8 ovarian = system: OVCAR-8 ovarian
LOX IMVI melanoma = system: LOX IMVI melanoma
MDA-MB-435 = system: MDA-MB-435
CCRF-CEM leukemia = system: CCRF-CEM leukemia
HS 578T breast = system: HS 578T breast
SNB-19 CNS = system: SNB-19 CNS
HT29 colon = system: HT29 colon
NCI-H23 lung = system: NCI-H23 lung
SF-539 CNS = system: SF-539 CNS

CC(C)=CCc1c2c(c(O)c3c1O[C@]14C(=C[C@@H]5C[C@H]1C(C)(C)O[C@@]4(C/C=C(/C)C(=O)O)C5=O)C3=O)CC(O)C(C)(C)O2 (some centres undefined) showed a GI50 (HOP-92 NSCLC) of 22.1 µM, a TGI (HOP-92 NSCLC) of 48.9 µM and a GI50 (SK-OV-3 ovarian) of 40.6 µM. For the same molecule, the TGI (SK-OV-3 ovarian) was over 100 µM, the GI50 (MDA-MB-231 breast) was 26.5 µM and the TGI (MDA-MB-231 breast) was 92.2 µM. The GI50 (SK-MEL-2 melanoma) was 16.6 µM, the TGI (SK-MEL-2 melanoma) was 34.7 µM and the GI50 (PC-3 prostate) was 19.8 µM. It also gave a TGI (PC-3 prostate) of 49.1 µM, a GI50 (NCI/ADR-RES ovarian) of 30.9 µM and a TGI (NCI/ADR-RES ovarian) of over 100 µM. It also gave a GI50 (HCT-15 colon) of 22.6 µM, a TGI (HCT-15 colon) of over 100 µM and a GI50 (BT-549 breast) of 12.4 µM. The TGI (BT-549 breast) was 26.4 µM, the GI50 (U251 CNS) was 15 µM and the TGI (U251 CNS) was 30.1 µM. It also gave a GI50 (SK-MEL-28 melanoma) of 19.7 µM, a TGI (SK-MEL-28 melanoma) of 47.6 µM and a GI50 (HCT-116 colon) of 13.2 µM. The TGI (HCT-116 colon) was 26.7 µM, the GI50 (EKVX NSCLC) was 21.6 µM and the TGI (EKVX NSCLC) was 69.8 µM. For the same molecule, the GI50 (DU-145 prostate) was 20.8 µM, the TGI (DU-145 prostate) was 48.1 µM and the GI50 (ACHN renal) was 27.7 µM. For the same molecule, the TGI (ACHN renal) was 85.7 µM, the GI50 (KM12 colon) was 18.6 µM and the TGI (KM12 colon) was 39.6 µM. The GI50 (OVCAR-3 ovarian) was 14.5 µM, the TGI (OVCAR-3 ovarian) was 28 µM and the GI50 (IGROV1 ovarian) was 20.3 µM. It also gave a TGI (IGROV1 ovarian) of 64.1 µM, a GI50 (SR leukemia) of 7.8 µM and a TGI (SR leukemia) of over 100 µM. It also gave a GI50 (HCC-2998 colon) of 17.7 µM, a TGI (HCC-2998 colon) of 32.9 µM and a GI50 (UACC-62 melanoma) of 15.5 µM. It also gave a TGI (UACC-62 melanoma) of 34.8 µM, a GI50 (CAKI-1 renal) of 19.9 µM and a TGI (CAKI-1 renal) of 57 µM. It also gave a GI50 (UO-31 renal) of 14.8 µM, a TGI (UO-31 renal) of 32.7 µM and a GI50 (OVCAR-5 ovarian) of 28.6 µM. For the same molecule, the TGI (OVCAR-5 ovarian) was 74 µM, the GI50 (K-562 leukemia) was 11.6 µM and the TGI (K-562 leukemia) was over 100 µM. The GI50 (SN12C renal) was 18.9 µM, the TGI (SN12C renal) was 51 µM and the GI50 (OVCAR-4 ovarian) was 24.4 µM. The TGI (OVCAR-4 ovarian) was 86.8 µM, the GI50 (COLO 205 colon) was 20.2 µM and the TGI (COLO 205 colon) was 43.4 µM. For the same molecule, the GI50 (786-0 renal) was 19.7 µM, the TGI (786-0 renal) was 38 µM and the GI50 (UACC-257 melanoma) was 19.4 µM. The TGI (UACC-257 melanoma) was 43.8 µM, the GI50 (RXF 393 renal) was 19 µM and the TGI (RXF 393 renal) was 38.2 µM. It also gave a GI50 (A549 NSCLC) of 31 µM, a TGI (A549 NSCLC) of 78.1 µM and a GI50 (SNB-75 CNS) of 21.3 µM. It also gave a TGI (SNB-75 CNS) of 64.1 µM, a GI50 (NCI-H460 lung) of 16.7 µM and a TGI (NCI-H460 lung) of 39.6 µM. The GI50 (TK-10 renal) was 23.8 µM, the TGI (TK-10 renal) was 41.1 µM and the GI50 (NCI-H226 lung) was 23.8 µM. It also gave a TGI (NCI-H226 lung) of 72.7 µM, a GI50 (MALME-3M melanoma) of 21.9 µM and a TGI (MALME-3M melanoma) of 52.5 µM. The GI50 (MOLT-4 leukemia) was 17.3 µM, the TGI (MOLT-4 leukemia) was 65.1 µM and the GI50 (SK-MEL-5 melanoma) was 15 µM. The TGI (SK-MEL-5 melanoma) was 30.3 µM, the GI50 (M14 melanoma) was 14.7 µM and the TGI (M14 melanoma) was 34.7 µM. For the same molecule, the GI50 (HOP-62 NSCLC) was 20.6 µM, the TGI (HOP-62 NSCLC) was 42.5 µM and the GI50 (SW-620 colon) was 13.2 µM. For the same molecule, the TGI (SW-620 colon) was 33.2 µM, the GI50 (HL-60(TB) leukemia) was 27.9 µM and the TGI (HL-60(TB) leukemia) was 68 µM. It also gave a GI50 (SF-295 CNS) of 27.9 µM, a TGI (SF-295 CNS) of 87 µM and a GI50 (RPMI-8226 leukemia) of 10.1 µM. The TGI (RPMI-8226 leukemia) was 53.6 µM, the GI50 (T-47D breast) was 19 µM and the TGI (T-47D breast) was 58.8 µM. For the same molecule, the GI50 (NCI-H522 lung) was 14.9 µM, the TGI (NCI-H522 lung) was 28.4 µM and the GI50 (MCF7 breast) was 9.1 µM. For the same molecule, the TGI (MCF7 breast) was 52.4 µM, the GI50 (SF-268 CNS) was 14.7 µM and the TGI (SF-268 CNS) was 34.5 µM. The GI50 (OVCAR-8 ovarian) was 18 µM, the TGI (OVCAR-8 ovarian) was 45.1 µM and the GI50 (LOX IMVI melanoma) was 11.2 µM. For the same molecule, the TGI (LOX IMVI melanoma) was 25.2 µM, the GI50 (MDA-MB-435) was 18.9 µM and the TGI (MDA-MB-435) was 51.8 µM. It also gave a GI50 (CCRF-CEM leukemia) of 5.76 µM, a TGI (CCRF-CEM leukemia) of 40.9 µM and a GI50 (HS 578T breast) of 14.1 µM. The TGI (HS 578T breast) was 86 µM, the GI50 (SNB-19 CNS) was 17.7 µM and the TGI (SNB-19 CNS) was 40.4 µM. The GI50 (HT29 colon) was 22 µM, the TGI (HT29 colon) was 62.4 µM and the GI50 (NCI-H23 lung) was 17.7 µM. For the same molecule, the TGI (NCI-H23 lung) was 48.4 µM, the GI50 (SF-539 CNS) was 20.7 µM and the TGI (SF-539 CNS) was 46.5 µM.
